From EP0645399A2, “Ribosome inactivating proteins (RIB), their method of production and medical preparation containing RIP” (priority 1993, dated 1995)

Target: T1, HIV-1 Reverse Transkriptase (Human immunodeficiency virus type 1 group M subtype B, UniProt P03366)
T1 construct: Rekombinante HIV-1 Reverse Transkriptase (66 kDa); made in house; host or cells: Escherichia coli
Assay: HIV-1 RT test (3H-TTP incorporation, recombinant enzyme)
Type: biochemical
Conditions: positive control; read-out: IC₅₀ (HIV-1 RT)
Text: Zur Untersuchung der biologischen Aktivität wird das aufgereinigte Protein (P 1) in einem Ribosomen-Hemmtest und einem HIV-1 RT Test eingesetzt. Im Ribosomen-Hemmtest wird die Inaktivierung von Ribosomen in einem Retikulozyten-Lysat durch das erfindungsgemäße Protein gemessen (vgl. Krawetz et al., 1983). Im HIV-1 RT Test wird die Hemmung der HIV-1 Reverse Transkriptase (HIV-1 RT) durch das erfindungsgemäße Protein P 1 bestimmt (vgl. Tan et al., 1991).
Enzym: Rekombinante HIV-1 Reverse Transkriptase (66 kDa), exprimiert in Escherichia coli (vgl. Tan et al., 1991 und darin zitierte Literatur). Die Aktivität des Enzyms in RT-Testsystemen ist von viralem Enzym nicht zu unterscheiden. Protein-Konzentration: 0,11 mg/ml; Aktivität: Einbau von 238 nM TTP/mg Protein in 10 min bei 37°C. Testansatz: 50 mM Tris-HCl, pH 8,0, 150 mM KCl, 5 mM MgCl₂, 0,5 mM EGTA, 5 mM Dithiothreitol, 0,3 mM Glutathion, 2,5 µg/ml BSA, 41 µM poly(A) (Σ₂₆₀(mM) = 7,8), 9,5 µM oligo(dT)₁₂₋₁₈ (Σ₂₆₅(mM) = 5,6), 0,05% Triton X-100, 20 µm TTP und 0,5 µCi (³H)-TTP (Endvolumen 100 µl). Probenlösung: 10 µl, in H₂O oder 25 mM Tris-HCl, pH 8,4. HIV-1 RT: 10 µl (0,11 µg in Testpuffer)
Die Polymerisationsreaktion wird durch den Zusatz der HIV-1 RT-Lösung zum Testansatz gestartet. Nach einer Inkubationszeit von 1 Stunde (37°C) wird die Reaktion durch Zugabe von 25 µl einer 0,1 M EGTA-Lösung gestoppt und die Ansätze auf Eis gekühlt. […]

For `COc1cc2c(ccc3c4cc(OC)c(OC)cc4c[n+](C)c23)cc1O` [Fagaronin-Chlorid], the IC50 was 13 µM.
